In one test the target is T1, BRG-1 (Homo sapiens, UniProt P51532).
T1 construct: made in house; host or cells: High Five insect cells
The experiment in a line: ATPase catalytic activity assay of BRG-1 (ADP-Glo). Format: biochemical. The settings on record: 30 nM BRG-1, 400 μM ATP, 20 nM salmon sperm DNA, 1 hour at room temperature; read-out: BRG1 ATPase: IC50. Here is the method:
(§1) Example 38. Assay for ATPase Catalytic Activity of BRM and BRG-1
(§2) The ADP-Glo™ kinase assay is performed in two steps once the reaction is complete.
A general note: ADP-Glo turns the ADP formed in a reaction into a luminescent signal.

The target of another test is T2, BRM (Homo sapiens, UniProt P51531).
T2 construct: made in house; host or cells: High Five insect cells
The experiment in a line: ATPase catalytic activity assay of BRM (ADP-Glo). Format: biochemical. Particulars: 30 nM BRM, 400 μM ATP, 20 nM salmon sperm DNA, 1 hour at room temperature. How it is done:
as §1, §2

T1 sequence (P51532 whole entry): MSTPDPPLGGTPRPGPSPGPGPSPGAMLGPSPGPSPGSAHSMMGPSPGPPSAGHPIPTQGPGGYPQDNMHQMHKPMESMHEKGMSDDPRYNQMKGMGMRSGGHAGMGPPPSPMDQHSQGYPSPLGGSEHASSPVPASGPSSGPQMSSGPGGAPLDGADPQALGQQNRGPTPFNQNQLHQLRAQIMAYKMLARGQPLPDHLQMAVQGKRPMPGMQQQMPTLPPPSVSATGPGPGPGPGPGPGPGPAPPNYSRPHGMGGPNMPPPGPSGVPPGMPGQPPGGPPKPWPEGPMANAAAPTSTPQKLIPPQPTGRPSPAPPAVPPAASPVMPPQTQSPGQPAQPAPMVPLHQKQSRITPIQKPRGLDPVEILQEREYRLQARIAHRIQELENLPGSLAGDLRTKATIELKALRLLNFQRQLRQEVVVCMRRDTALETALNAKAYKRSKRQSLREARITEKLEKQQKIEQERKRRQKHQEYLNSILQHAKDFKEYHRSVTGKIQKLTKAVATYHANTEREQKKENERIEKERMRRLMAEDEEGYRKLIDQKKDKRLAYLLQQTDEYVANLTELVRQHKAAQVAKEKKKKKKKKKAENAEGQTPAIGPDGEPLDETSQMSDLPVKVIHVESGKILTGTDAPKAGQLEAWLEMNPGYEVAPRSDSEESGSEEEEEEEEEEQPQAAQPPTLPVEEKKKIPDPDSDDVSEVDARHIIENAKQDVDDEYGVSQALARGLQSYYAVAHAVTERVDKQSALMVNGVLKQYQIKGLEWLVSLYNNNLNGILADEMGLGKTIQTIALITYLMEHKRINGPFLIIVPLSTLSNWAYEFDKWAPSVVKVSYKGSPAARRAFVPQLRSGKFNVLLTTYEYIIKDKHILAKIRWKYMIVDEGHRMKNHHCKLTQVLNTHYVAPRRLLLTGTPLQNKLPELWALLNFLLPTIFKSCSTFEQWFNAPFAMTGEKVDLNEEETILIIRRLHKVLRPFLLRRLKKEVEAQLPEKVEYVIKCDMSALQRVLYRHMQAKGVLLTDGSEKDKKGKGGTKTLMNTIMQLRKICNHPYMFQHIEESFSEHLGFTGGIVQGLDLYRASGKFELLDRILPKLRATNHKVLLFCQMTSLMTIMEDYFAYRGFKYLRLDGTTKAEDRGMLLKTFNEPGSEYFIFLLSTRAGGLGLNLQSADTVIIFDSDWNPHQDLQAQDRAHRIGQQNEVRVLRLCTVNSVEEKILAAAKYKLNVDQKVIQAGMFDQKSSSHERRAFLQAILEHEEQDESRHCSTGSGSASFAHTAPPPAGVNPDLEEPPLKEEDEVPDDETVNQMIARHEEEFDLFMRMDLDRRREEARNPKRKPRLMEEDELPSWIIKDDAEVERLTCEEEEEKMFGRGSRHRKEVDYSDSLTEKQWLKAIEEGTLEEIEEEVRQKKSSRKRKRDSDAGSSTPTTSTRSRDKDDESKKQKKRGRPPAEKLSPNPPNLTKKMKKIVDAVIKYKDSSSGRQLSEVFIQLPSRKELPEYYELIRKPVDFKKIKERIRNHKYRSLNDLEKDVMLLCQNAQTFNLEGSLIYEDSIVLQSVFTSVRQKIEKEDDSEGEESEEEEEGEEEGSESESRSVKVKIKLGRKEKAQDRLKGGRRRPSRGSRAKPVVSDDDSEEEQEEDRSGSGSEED
T2 sequence (P51531 whole entry): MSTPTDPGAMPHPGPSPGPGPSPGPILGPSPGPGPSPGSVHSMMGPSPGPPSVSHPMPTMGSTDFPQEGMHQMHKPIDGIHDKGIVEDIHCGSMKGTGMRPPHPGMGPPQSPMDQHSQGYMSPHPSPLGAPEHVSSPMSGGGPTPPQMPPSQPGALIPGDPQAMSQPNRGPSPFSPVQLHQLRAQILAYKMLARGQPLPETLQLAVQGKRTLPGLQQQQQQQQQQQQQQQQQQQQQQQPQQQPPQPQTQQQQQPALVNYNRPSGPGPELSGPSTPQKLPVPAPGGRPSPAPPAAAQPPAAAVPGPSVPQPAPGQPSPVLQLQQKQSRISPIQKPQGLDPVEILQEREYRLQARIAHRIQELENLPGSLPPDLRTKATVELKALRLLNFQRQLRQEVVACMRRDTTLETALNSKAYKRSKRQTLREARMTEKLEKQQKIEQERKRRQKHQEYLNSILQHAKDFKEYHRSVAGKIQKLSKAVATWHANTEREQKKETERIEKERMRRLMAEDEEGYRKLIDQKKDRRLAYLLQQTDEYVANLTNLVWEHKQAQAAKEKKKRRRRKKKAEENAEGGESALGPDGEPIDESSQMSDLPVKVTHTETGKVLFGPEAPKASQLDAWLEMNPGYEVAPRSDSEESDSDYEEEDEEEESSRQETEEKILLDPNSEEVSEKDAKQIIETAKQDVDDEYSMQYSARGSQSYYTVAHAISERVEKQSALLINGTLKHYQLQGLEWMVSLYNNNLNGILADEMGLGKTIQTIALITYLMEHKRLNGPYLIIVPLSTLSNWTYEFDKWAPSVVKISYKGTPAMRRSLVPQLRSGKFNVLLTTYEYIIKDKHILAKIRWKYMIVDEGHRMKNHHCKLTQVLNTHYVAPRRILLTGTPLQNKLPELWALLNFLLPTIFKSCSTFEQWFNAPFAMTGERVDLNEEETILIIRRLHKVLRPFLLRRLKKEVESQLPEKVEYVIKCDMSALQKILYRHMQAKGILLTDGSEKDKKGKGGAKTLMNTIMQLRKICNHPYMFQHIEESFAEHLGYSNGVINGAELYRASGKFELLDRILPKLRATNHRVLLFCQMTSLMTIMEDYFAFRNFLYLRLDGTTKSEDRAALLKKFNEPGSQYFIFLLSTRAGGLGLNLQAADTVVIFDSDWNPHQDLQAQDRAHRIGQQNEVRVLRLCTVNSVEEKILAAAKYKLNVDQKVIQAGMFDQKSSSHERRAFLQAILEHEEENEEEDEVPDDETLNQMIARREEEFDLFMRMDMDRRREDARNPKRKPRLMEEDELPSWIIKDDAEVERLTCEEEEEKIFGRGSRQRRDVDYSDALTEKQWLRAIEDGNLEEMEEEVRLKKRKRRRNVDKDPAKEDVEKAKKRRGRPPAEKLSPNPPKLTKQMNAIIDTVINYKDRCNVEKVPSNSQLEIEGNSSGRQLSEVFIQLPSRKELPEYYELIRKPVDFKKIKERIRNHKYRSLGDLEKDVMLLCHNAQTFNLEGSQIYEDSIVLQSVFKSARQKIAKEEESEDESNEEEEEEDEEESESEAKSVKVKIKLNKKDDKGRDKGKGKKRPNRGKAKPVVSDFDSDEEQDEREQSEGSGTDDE

Take `Nc1ccc(C(=O)NCc2nc3ccc(-c4cccc(-c5ccncc5)c4)nc3[nH]2)cc1` [Compound 1, 4-amino-N-((5-(3-(pyridin-4-yl)phenyl)-3H-imidazo[4,5-b]pyridin-2-yl)methyl)benzamide]: the IC50 at BRG-1 and on BRM was 100 to 1000 nM throughout.
For `CS(=O)(=O)n1ccc(C(=O)NCc2nc3ccc(-c4cccc(-c5ccncc5)c4)nc3[nH]2)c1` [Compound 2], the IC50 at BRG-1 and on BRM was 10 to 100 nM in each case.
For `CC(C)S(=O)(=O)n1ccc(C(=O)NCc2nc3ccc(-c4cccc(-c5ccncc5)c4)nc3[nH]2)c1` [Compound 3], the values for the IC50 at BRG-1 and on BRM were 100 to 1000 nM and 10 to 100 nM, respectively.
For `C[C@H](NC(=O)c1ccn(S(C)(=O)=O)c1)c1nc2ccc(-c3cccc(-c4ccncc4)c3)nc2[nH]1` [Compound 4] the same measures were 10 to 100 nM and 10 to 100 nM.
For `C[C@@H](NC(=O)c1ccn(S(C)(=O)=O)c1)c1nc2ccc(-c3cccc(-c4ccncc4)c3)nc2[nH]1` [Compound 5] the same measures were 100 to 1000 nM and 100 to 1000 nM.
For `COc1ccc(-c2ccc3nc(CNC(=O)c4ccn(C(C)(C)C)c4)[nH]c3n2)cc1` [Compound 6] the same measures were 100 to 1000 nM and 100 to 1000 nM.
On to `CS(=O)(=O)n1ccc(C(=O)NCc2nc3ccc(-c4cccc(N5CCC5)c4)cc3[nH]2)c1` [Compound 7], for which the IC50 on BRG-1 and on BRM was 100 to 1000 nM throughout.
With `CS(=O)(=O)n1ccc(C(=O)NCc2nc3ccc(-c4cccc(N5CCC(O)CC5)c4)cc3[nH]2)c1` [Compound 8, N-((6-(3-(4-hydroxypiperidin-1-yl)phenyl)-1H-benzo[d]imidazol-2-yl)methyl)-1-(methylsulfonyl)-1H-pyrrole-3-carboxamide], the IC50 was 100 to 1000 nM on BRG-1 and 10 to 100 nM against BRM.
For `CS(=O)(=O)n1ccc(C(=O)NCc2nc3ccc(-c4ccc(N5CCC5)cc4)nc3[nH]2)c1` [Compound 9] the same measures were 10 to 100 nM and 10 to 100 nM.
For `CS(=O)(=O)n1ccc(C(=O)NCc2nc3ccc(-c4cccc(N5CCC5)c4)nc3[nH]2)c1` [Compound 10] the same measures were 100 to 1000 nM and 10 to 100 nM.
For `C[C@@H]1CN(c2cccc(-c3ccc4nc(CNC(=O)c5ccn(S(C)(=O)=O)c5)[nH]c4c3)c2)C[C@H](C)O1` [Compound 11] the same measures were 10 to 100 nM and 10 to 100 nM.
Consider `CS(=O)(=O)n1ccc(C(=O)NCc2nc3ccc(-c4cccc(N5CCC(O)CC5)c4)nc3[nH]2)c1` [Compound 12, N-((5-(3-(4-hydroxypiperidin-1-yl)phenyl)-3H-imidazo[4,5-b]pyridin-2-yl)methyl)-1-(methylsulfonyl)-1H-pyrrole-3-carboxamide], for which the IC50 at BRG-1 and against BRM was 100 to 1000 nM throughout.
Regarding `C[C@@H]1CN(c2cccc(-c3ccc4nc(CNC(=O)c5ccn(S(C)(=O)=O)c5)[nH]c4n3)c2)C[C@H](C)O1` [Compound 13], the IC50 at BRG-1 and at BRM was 10 to 100 nM throughout.
In the case of `C[C@@H]1CN(c2ccc(-c3ccc4nc(CNC(=O)c5ccn(S(C)(=O)=O)c5)[nH]c4n3)cc2)C[C@H](C)O1` [Compound 14], the IC50 at BRG-1 and against BRM was 100 to 1000 nM in each case.
Consider `C[C@@H]1CN(c2cccc(-c3ccc4nc(CNC(=O)c5ccn(C(C)(C)C)c5)[nH]c4c3)c2)C[C@H](C)O1` [Compound 15], for which the IC50 at BRG-1 and against BRM was 100 to 1000 nM each time.
Consider `COc1cccc(-c2ccc3nc(CNC(=O)c4ccn(C(C)(C)C)c4)[nH]c3c2)c1` [Compound 16], for which the IC50 at BRG-1 and at BRM was 100 to 1000 nM throughout.
As to `COc1cccc(-c2ccc3nc(CNC(=O)c4cc(C)n(S(C)(=O)=O)c4)[nH]c3c2)c1` [Compound 17], the IC50 on BRG-1 and against BRM was 10 to 100 nM each time.
With `C[C@@H]1CN(c2cccc(-c3ccc4nc(CNC(=O)c5ccn(C6(C#N)CC6)c5)[nH]c4n3)c2)C[C@H](C)O1` [Compound 18], the IC50 at BRG-1 and against BRM was 100 to 1000 nM throughout.
Consider `C[C@@H]1CN(c2cccc(-c3ccc4nc(CNC(=O)c5ccn(C(C)(C)C)c5)[nH]c4n3)c2)C[C@H](C)O1` [Compound 19], for which the IC50 at BRG-1 and against BRM was 100 to 1000 nM throughout.
In the case of `Cn1ccc2ccc(-c3ccc4nc(CNC(=O)c5ccn(C6(C)COC6)c5)[nH]c4c3)cc2c1=O` [Compound 20, N-((6-(2-methyl-1-oxo-1,2-dihydroisoquinolin-7-yl)-1H-benzo[d]imidazol-2-yl)methyl)-1-(3-methyloxetan-3-yl)-1H-pyrrole-3-carboxamide], the IC50 at BRG-1 and against BRM was 100 to 1000 nM each time.
In the case of `COC(=O)N1CCC[C@@H](c2ccc3nc(CNC(=O)c4ccn(S(C)(=O)=O)c4)[nH]c3c2)C1` [Compound 21, (S)-methyl 3-(2-((1-(methylsulfonyl)-1H-pyrrole-3-carboxamido)methyl)-1H-benzo[d]imidazol-6-yl)piperidine-1-carboxylate], the IC50 at BRG-1 and against BRM was 100 to 1000 nM in each case.
On to `COC(=O)N1CCC[C@H](c2ccc3nc(CNC(=O)c4ccn(S(C)(=O)=O)c4)[nH]c3c2)C1` [Compound 22, (R)-methyl 3-(2-((1-(methylsulfonyl)-1H-pyrrole-3-carboxamido)methyl)-1H-benzo[d]imidazol-6-yl)piperidine-1-carboxylate], for which the IC50 on BRG-1 is over 1000 nM; against BRM it was 100 to 1000 nM.
As for `CS(=O)(=O)n1ccc(C(=O)NCc2nc3ccc(N4CCCC(C5CCC5)C4)nc3[nH]2)c1` (centres unmarked) [Compound 23], the IC50 at BRG-1 and against BRM was 100 to 1000 nM throughout.
Consider `CC(C)S(=O)(=O)n1ccc(C(=O)NCc2nc3ccc(-c4ccc5ccn(C)c(=O)c5c4)cc3[nH]2)c1` [Compound 24], for which the IC50 at BRG-1 and against BRM was 100 to 1000 nM each time.
On to `COC(=O)N1CCC[C@@H](c2ccc3nc(CNC(=O)c4ccn(S(C)(=O)=O)c4)[nH]c3n2)C1` [Compound 25], for which the half-inhibitory concentration (IC50) on BRG-1 and at BRM was 100 to 1000 nM in each case.
With `COC(=O)N1CCC[C@H](c2ccc3nc(CNC(=O)c4ccn(S(C)(=O)=O)c4)[nH]c3n2)C1` [Compound 26], the IC50 at BRG-1 was over 1000 nM; against BRM it was 100 to 1000 nM.
For `CS(=O)(=O)n1ccc(C(=O)NCc2nc3ccc(-c4ccccc4)cc3[nH]2)c1` [Compound 27], the IC50 on BRG-1 and at BRM was 100 to 1000 nM each time.
Regarding `CS(=O)(=O)n1ccc(C(=O)NCc2nc3ccc(-c4ccc(OC(F)(F)F)cc4)nc3[nH]2)c1` [Compound 28], the IC50 on BRG-1 and on BRM was 10 to 100 nM each time.
In the case of `CS(=O)(=O)n1ccc(C(=O)NCc2nc3ccc(-c4cccc(OC(F)(F)F)c4)nc3[nH]2)c1` [Compound 29], the IC50 at BRG-1 and at BRM was 100 to 1000 nM throughout.
With `CC(C)(C)n1ccc(C(=O)NCc2nc3ccc(-c4cc(Cl)cc(C#N)c4)cc3[nH]2)c1` [Compound 30], the results for the IC50 at BRG-1 and against BRM were 100 to 1000 nM and 10 to 100 nM, respectively.
For `CN1Cc2ccc(-c3ccc4nc(CNC(=O)c5ccn(C(C)(C)C)c5)[nH]c4c3)cc2C1=O` [Compound 31] the same measures were 10 to 100 nM and 10 to 100 nM.
Regarding `Cn1ccc2cc(-c3ccc4nc(CNC(=O)c5ccn(C(C)(C)C)c5)[nH]c4c3)ccc21` [Compound 32], the IC50 on BRG-1 and on BRM was 10 to 100 nM in each case.
`Cn1cc2ccc(-c3ccc4nc(CNC(=O)c5ccn(C(C)(C)C)c5)[nH]c4c3)cc2n1` [Compound 33]: the half-maximal inhibitory concentration (IC50) at BRG-1 and against BRM was 10 to 100 nM in each case.
For the molecule `CC(C)(C)n1ccc(C(=O)NCc2nc3ccc(-c4ccc5ncccc5c4)cc3[nH]2)c1` [Compound 34], the IC50 at BRG-1 and on BRM was 10 to 100 nM throughout.
As to `COc1ccc(-c2ccc3nc(CNC(=O)c4ccn(C(C)(C)C)c4)[nH]c3c2)cc1Cl` [Compound 35], the IC50 on BRG-1 lay in the range of 100 to 1000 nM; on BRM, 10 to 100 nM.
For `Cn1ncc2ccc(-c3ccc4nc(CNC(=O)c5ccn(C(C)(C)C)c5)[nH]c4c3)cc21` [Compound 36] the same measures were 100 to 1000 nM and 100 to 1000 nM.
As to `CC(C)(C)n1ccc(C(=O)NCc2nc3ccc(-c4ccc(C5CC5)cc4)cc3[nH]2)c1` [Compound 37], the IC50 on BRG-1 and on BRM was 100 to 1000 nM throughout.
Take `CC(C)(C)n1ccc(C(=O)NCc2nc3ccc(-c4cncc5ccccc45)cc3[nH]2)c1` [Compound 38]: the IC50 on BRG-1 and against BRM was 100 to 1000 nM in each case.
For `CC(C)(C)n1ccc(C(=O)NCc2nc3ccc(-c4cccc(C#N)c4)cc3[nH]2)c1` [Compound 39], the IC50 on BRG-1 and against BRM was 100 to 1000 nM in each case.
`CC(C)(C)n1ccc(C(=O)NCc2nc3ccc(-c4ccc5c(c4)CCO5)cc3[nH]2)c1` [Compound 40]: the IC50 on BRG-1 and at BRM was 100 to 1000 nM in each case.
Take `CC(C)(C)n1ccc(C(=O)NCc2nc3ccc(-c4ccc5cnccc5c4)cc3[nH]2)c1` [Compound 41]: the IC50 at BRG-1 and on BRM was 10 to 100 nM each time.
As for `CC(C)(C)n1ccc(C(=O)NCc2nc3ccc(-c4ccc5scnc5c4)cc3[nH]2)c1` [Compound 42], the IC50 at BRG-1 and against BRM was 10 to 100 nM each time.
As for `CC(C)(C)n1ccc(C(=O)NCc2nc3ccc(-c4ccc(C#N)cc4)cc3[nH]2)c1` [Compound 43], the IC50 at BRG-1 and at BRM was 100 to 1000 nM each time.
With `COc1ccc2cc(-c3ccc4nc(CNC(=O)c5ccn(C(C)(C)C)c5)[nH]c4c3)ccc2c1` [Compound 44], the IC50 at BRG-1 and against BRM was 10 to 100 nM each time.
As to `CC(C)(C)n1ccc(C(=O)NCc2nc3ccc(-c4ccc5c(c4)OCC5)cc3[nH]2)c1` [Compound 45], the figures for the IC50 on BRG-1 and at BRM were 100 to 1000 nM and 10 to 100 nM, respectively.
For `CC(C)(C)OCc1cccc(-c2ccc3nc(CNC(=O)c4ccn(C(C)(C)C)c4)[nH]c3c2)c1` [Compound 46] the same measures were 100 to 1000 nM and 10 to 100 nM.

As usually defined, the IC50 is the concentration at which inhibition is half-maximal.
